Source: the Deep4Chem optical property database

Assay: solvent given as SMILES

CCCCCCOc1ccc(/C=C/c2ccc(N(c3ccc(/C=C/c4ccc(OCCCCCC)cc4)cc3)c3ccc(-c4nc5ccccc5nc4-c4ccc(N(c5ccc(/C=C/c6ccc(OCCCCCC)cc6)cc5)c5ccc(/C=C/c6ccc(OCCCCCC)cc6)cc5)cc4)cc3)cc2)cc1
emission maximum (in C1CCOC1): 518 nm
emission maximum (in Cc1ccccc1): 505 nm

O=C(O)c1ccc(-c2ccc(-c3nc(-c4ccccc4)c4ccccn34)cc2)s1
emission maximum (in CC#N): 485 nm

Cn1c(=O)c(/N=N/c2ccc(S(=O)(=O)O)c3ccccc23)c(O)c2ccccc21
emission maximum (in C1CCOC1): 548 nm
emission maximum (in CC(C)=O): 564 nm
emission maximum (in CCOC(C)=O): 555 nm
emission maximum (in CO): 562 nm
emission maximum (in CS(C)=O): 571 nm
emission maximum (in Cc1ccccc1): 540 nm
emission maximum (in ClCCl): 541 nm
emission maximum (in O): 582 nm

COc1cccc(/C=C/C(=O)c2c(O)cc(C)oc2=O)c1
emission maximum (in CC#N): 500 nm
emission maximum (in ClCCl): 490 nm

CCOc1ccc2c(-c3nc(-c4cccc(C)c4)no3)cc(=O)oc2c1
emission maximum (in CCO): 465 nm
emission maximum (in ClC(Cl)Cl): 456 nm

CC1(C)c2ccccc2-c2cc3c(cc21)N(c1ccc(-c2nc(-c4ccc(N5c6ccccc6C(c6ccccc6)(c6ccccc6)c6cc7c(cc65)C(C)(C)c5ccccc5-7)cc4)nc(-c4ccc(N5c6ccccc6C(c6ccccc6)(c6ccccc6)c6cc7c(cc65)C(C)(C)c5ccccc5-7)cc4)n2)cc1)c1ccccc1C3(c1ccccc1)c1ccccc1
emission maximum (in Cc1ccccc1): 515 nm

COc1ccc(-n2c3ccccc3c3cc(C=C(C#N)C#N)ccc32)cc1
emission maximum (in C1CCOC1): 499 nm
emission maximum (in CC#N): 536 nm
emission maximum (in CC(C)=O): 525 nm
emission maximum (in CCOC(C)=O): 495 nm
emission maximum (in CO): 534 nm
emission maximum (in CS(C)=O): 547 nm
emission maximum (in Cc1ccccc1): 450 nm
emission maximum (in ClC(Cl)Cl): 511 nm

c1ccc2c(c1)-c1sc3ccccc3c1C21c2ccccc2-c2sc3ccccc3c21
emission maximum (in ClCCl): 368 nm

N#Cc1c(N2CCCC2)cc(-c2ccccc2)c2c1-c1ccccc1C2
emission maximum (in C1CCOC1): 446 nm

C#CCOc1ccc(/C=C/C2=[N+]3C(=C(c4ccc(N(CC)CC)cc4)c4c(C)cc(/C=C/c5ccc(OCC(=O)OC)cc5)n4[B-]3(F)F)C(C)=C2)cc1
emission maximum (in CO): 655 nm

CCN(CC)c1cc2oc3cc(N(CC)CC)c(F)cc3c(=O)c2cc1F
emission maximum (in CCO): 452 nm

COc1ccc(C2=c3sc(-c4ccc(OC)cc4)c(-c4ccc(OC)cc4)c3=[N+]3C2=Nc2c(-c4ccc(OC)cc4)c4sc(-c5ccc(OC)cc5)c(-c5ccc(OC)cc5)c4n2[B-]3(F)F)cc1
emission maximum (in ClC(Cl)Cl): 816 nm

c1ccc(-c2nc(-c3ccc(N4c5ccccc5Sc5ccccc54)cc3)nn2-c2ccc(N3c4ccccc4Sc4ccccc43)cc2)nc1
emission maximum (in ClCCl): 490 nm

COc1ccc(C2=CC(c3ccccc3)=[N+]3C2=Nc2c(-c4ccc(OC)cc4)cc(-c4ccccc4)n2[B-]3(F)F)cc1
emission maximum (in Cc1ccccc1): 697 nm
emission maximum (in ClC(Cl)Cl): 695 nm

CCC(CC)COC1=CC2=C3c4cc(OCC(CC)CC)c(-c5ccccc5)n4[B-](F)(F)[n+]4nnn(c43)[B-](F)(F)[N+]2=C1c1ccccc1
emission maximum (in C1CCOC1): 725 nm
emission maximum (in CC#N): 721 nm
emission maximum (in ClCCl): 730 nm

Cc1ccc(/C=C(\c2ccccc2)c2nc3ccccc3o2)cc1
emission maximum (in C1CCCCC1): 380 nm
emission maximum (in CO): 385 nm

COC(=O)c1noc(-c2ccccc2)c1Cl
emission maximum (in C1CCCCC1): 344 nm

CN(C)CCN(Cc1c2ccccc2c(CN(CCN(C)C)c2ccc([N+](=O)[O-])cc2[N+](=O)[O-])c2ccccc12)c1ccc([N+](=O)[O-])cc1[N+](=O)[O-]
emission maximum (in C1CCCCC1): 416 nm
emission maximum (in C1CCOC1): 419 nm
emission maximum (in CC#N): 389 nm
emission maximum (in CC(C)=O): 387 nm
emission maximum (in CCO): 388 nm
emission maximum (in CN(C)C=O): 424 nm
emission maximum (in CO): 389 nm
emission maximum (in ClC(Cl)Cl): 417 nm

COc1ccc(C2=C(c3ccc(OC)cc3)c3cccc4c5c(cc(c34)O2)=NC(C#N)C(C#N)N=5)cc1 (stereo not drawn)
emission maximum (in ClCCl): 632 nm

Cc1cc2c(o1)c(Br)cc1c(C)cc(=O)oc12
emission maximum (in C1CCCCC1): 408 nm
emission maximum (in C1COCCO1): 418 nm
emission maximum (in CC#N): 435 nm
emission maximum (in CCO): 439 nm
emission maximum (in OCC(F)(F)F): 436 nm

O=P1(c2ccccc2)C2=C(c3ccccc31)S(=O)(=O)c1ccccc12 (stereo not drawn)
emission maximum (in C1CCCCC1): 453 nm
emission maximum (in CC#N): 465 nm
emission maximum (in CCO): 471 nm
emission maximum (in ClCCl): 466 nm

COc1cc(-c2ncc(-c3ccncc3)o2)cc(OC)c1OC
emission maximum (in ClCCl): 417 nm

CN(C)c1ccc(C(=O)Nc2ccc([N+](=O)[O-])cc2)cc1
emission maximum (in C1CCCCC1): 360 nm
emission maximum (in C1CCOC1): 400 nm
emission maximum (in CC#N): 430 nm
emission maximum (in CCOCC): 536 nm

CCCCCCCCn1c2cc(/C=C/c3ccc(N(c4ccccc4)c4ccccc4)cc3)ccc2c2cc3c(cc21)c1ccc(/C=C/c2ccc(N(c4ccccc4)c4ccccc4)cc2)cc1n3CCCCCCCC
emission maximum (in Cc1ccccc1): 473 nm

Cc1cc(C#Cc2ccccc2)c2ccc3c(C#Cc4ccccc4)cc(C#Cc4ccccc4)c4ccc1c2c43
emission maximum (in CS(C)=O): 461 nm
emission maximum (in ClC(Cl)(Cl)Cl): 460 nm

CN(C)c1ccc2nc(-c3ccc(/C=N/c4ccccc4)cc3)sc2c1
emission maximum (in C1CCCCC1): 445 nm
emission maximum (in CC#N): 610 nm
emission maximum (in CO): 639 nm
emission maximum (in ClC(Cl)Cl): 534 nm

COC(=O)c1c(-c2cc3ccccc3oc2=O)nn(-c2cccc(Cl)c2)c1C(=O)OC
emission maximum (in ClCCl): 418 nm

c1cc2ccc1-c1ccc(cc1)-c1ccc(s1)-c1ccc(cc1)-c1ccc(cc1)-c1ccc(s1)-c1ccc(cc1)-c1ccc(cc1)-c1ccc-2s1
emission maximum (in C1CCOC1): 523 nm

C(/C=C/C1=[NH+]c2cccc3cccc1c23)=c1/[nH]c2cccc3cccc1c32
emission maximum (in CO): 651 nm

O=Cc1ccc(N(c2ccc(C=O)cc2)c2ccc(-c3ccc4c(c3)C(=O)c3ccccc3C4=O)cc2)cc1
emission maximum (in C1CCOC1): 662 nm
emission maximum (in CCCCCC): 493 nm
emission maximum (in CCOC(C)=O): 654 nm
emission maximum (in CCOCC): 585 nm
emission maximum (in Cc1ccccc1): 558 nm
emission maximum (in ClC(Cl)(Cl)Cl): 541 nm
emission maximum (in ClCCl): 685 nm

CCCCCCOc1ccc2oc3c(c2c1)=CC1=C(c2ccccc2C)c2cc4c5cc(OCCCCCC)ccc5oc4n2[B-](F)(F)[N+]=31
emission maximum (in C1CCCCC1): 603 nm
emission maximum (in CCOC(C)=O): 602.5 nm
emission maximum (in CO): 603 nm

CCCCC1(CCCC)c2cc(C#Cc3ccc4ccc5cccc6ccc3c4c56)ccc2-c2ccc(C#Cc3ccc4ccc5cccc6ccc3c4c56)cc21
emission maximum (in C1CCCCC1): 433 nm
emission maximum (in C1CCOC1): 437 nm
emission maximum (in CC#N): 433 nm
emission maximum (in CCOC(C)=O): 433 nm
emission maximum (in CN(C)C=O): 441 nm
emission maximum (in Cc1ccccc1): 438 nm
emission maximum (in ClC(Cl)Cl): 439 nm
emission maximum (in ClCCl): 439 nm

CC(C)(C)NC(=O)c1ccc(-c2cc3ccccc3o2)c2ccc3c4ccccc4c4ccccc4c3c12
emission maximum (in ClCCl): 441 nm

Cc1cc(C)c([B-]2(c3c(C)cc(C)cc3C)[O+]=P(c3ccccc3)(c3ccccc3)c3cc(-c4ccc(C(C)(C)C)cc4)sc3-c3sc(-c4ccc(C(C)(C)C)cc4)cc32)c(C)c1
emission maximum (in C1CCOC1): 498 nm

CC(C)c1cccc(C(C)C)c1-n1c(=O)c2ccc3c4ccc5c(=O)n(-c6c(C(C)C)cccc6C(C)C)c(=O)c6cc7c(-c8ccccn8)nc8cc(c1=O)c2c3c8c7c4c56
emission maximum (in ClC(Cl)Cl): 485 nm

C[C@@]12SC(Cl)=CC1=c1nc(-c3ccccc3)[nH]c1=C1C=C(Cl)S[C@]12C
emission maximum (in CC#N): 452 nm

Cc1ccc(C2=C3C=CC(=[N+](C)C)C=C3[Si](C)(C)c3cc(N(C)C)ccc32)c(C)c1
emission maximum (in O): 660 nm

CN1/C(=C/C=C(/C=C/c2sc3ccccc3[n+]2C)c2ccc(C(F)(F)F)cc2)Sc2ccccc21
emission maximum (in CCO): 678 nm
emission maximum (in CO): 676 nm
emission maximum (in CS(C)=O): 668 nm
emission maximum (in O): 659 nm

Cc1ccc(N2C(c3ccccc3[NH-])=[NH+]C(c3ccccc3)C2c2ccccc2)cc1 (stereo not drawn)
emission maximum (in Cc1ccccc1): 572 nm

O=c1c2cc(-n3c4ccccc4c4ccccc43)ccc2sc2ccc(-n3c4ccccc4c4ccccc43)cc12
emission maximum (in C1CCOC1): 460 nm
emission maximum (in CCCCCC): 438 nm
emission maximum (in Cc1ccccc1): 455.5 nm
emission maximum (in ClC(Cl)Cl): 493.5 nm
emission maximum (in ClCCl): 495 nm

Cc1ccc(C2C3=C(CCCC3=O)Nc3c2c(=O)oc2ccccc32)cc1 (stereo not drawn)
emission maximum (in CS(C)=O): 441 nm

c1ccc2c(c1)[nH]c1c3[nH]c4ccccc4c3c3nsnc3c21
emission maximum (in CN(C)C=O): 493 nm
emission maximum (in Cc1ccccc1): 456 nm
emission maximum (in ClCCl): 489 nm

Cc1c(C)n2c(COC(=O)c3ccccc3O)c(C)c(=O)n2c1=O
emission maximum (in CCO): 465 nm

CCCCOc1c(C#N)cc2cc(C#N)c(OCCCC)c3c4c(OCCCC)c(C#N)cc5cc(C#N)c(OCCCC)c(c1c23)c54
emission maximum (in ClCCl): 514 nm

Cc1ccc2c(CC(=O)NN)coc2c1
emission maximum (in C1CCOC1): 400 nm
emission maximum (in CC#N): 397 nm
emission maximum (in CC(C)=O): 402 nm
emission maximum (in CCCCO): 398 nm
emission maximum (in CCCO): 394 nm
emission maximum (in CCO): 397 nm
emission maximum (in CCOC(C)=O): 390 nm
emission maximum (in CN(C)C=O): 412 nm
emission maximum (in CO): 391 nm
emission maximum (in ClCCl): 399 nm

Cc1ccccc1/C(C#N)=C/c1ccc(N(C)C)cc1
emission maximum (in C1CCOC1): 484 nm
emission maximum (in C1COCCO1): 476 nm
emission maximum (in CC#N): 427 nm
emission maximum (in CCCCCC): 431 nm
emission maximum (in CCCCCCC): 433 nm
emission maximum (in CCCCCO): 495 nm
emission maximum (in CCCCO): 502 nm
emission maximum (in CCCO): 505 nm
emission maximum (in CCO): 509 nm
emission maximum (in CCOC(C)=O): 490 nm
emission maximum (in CN(C)C=O): 456 nm
emission maximum (in CO): 450 nm
emission maximum (in CS(C)=O): 453 nm
emission maximum (in Cc1ccccc1): 464 nm
emission maximum (in ClC(Cl)Cl): 481 nm

CC(C)(C)c1cc(-c2c3cc(c(-c4cc(C(C)(C)C)cc(C(C)(C)C)c4)c4ccc([nH]4)c(-c4ccc([N+](=O)[O-])cc4)c4nc(c(-c5ccc([N+](=O)[O-])cc5)c5ccc2[nH]5)C=C4)N=C3)cc(C(C)(C)C)c1
emission maximum (in ClCCl): 741 nm

COc1ccc(-c2cc(-c3ccc(C#N)cc3)nn2C)cc1
emission maximum (in ClCCl): 384 nm

CN1C(=CC2=C([O-])C(=CC3=[N+](C)c4ccccc4C3(C)C)C2=NC#N)C(C)(C)c2ccccc21
emission maximum (in ClC(Cl)Cl): 665 nm
